Assay results published in patent publication US20190133997A1, “ARTEMISININ ANALOG, AND USE, METHOD, AND COMPOSITION FOR PROMOTING LIPID CATABOLISM AND IMPROVING SUGAR METABOLISM” (FUDAN UNIVERSITY, priority 2016, published 2019).

System: BMP4-directed C3H10T1/2
Assay: Artemisinin and analogues on BMP4-directed C3H10T1/2 (morphology, Western blot)
Assay type: cell-based
Conditions: for cell morphology of C3H10T1/2: concentration shown in FIG. 8, from Day 0 of differentiation, vs control
Protocol: 4.3.1 Culture and Differentiation of C3H10T1/2 According to Method 2.4.1.
Artemisinin, artesunate and dihydroartemisinin were stored in DMSO at a storage concentration of 10 mMol/L. The concentration shown in FIG. 8 was added on Day 0 of differentiation. Fresh medium was replaced every two days, and the corresponding concentrations of compounds were added until the cells differentiated to mature.
The method for extracting C3H10T1/2 cell total protein was the same as 2.4.3;
Western blot method and catalog number of antibody was the same as 2.4.4.

Row | SMILES | cell morphology of C3H10T1/2 | expression of brown fat-related genes (C3H10T1/2) | expression level of UCP1 (dihydroartemisinin 1, 2.5, 5, 7.5 Mol/L, Western blot) | expression level of PGC1α (dihydroartemisinin, Western blot)
1 | C[C@@H]1CC[C@H]2[C@@H](C)C(=O)O[C@@H]3O[C@@]4(C)CC[C@@H]1[C@]32OO4 [artemisinin] | exhibited similar morphological characteristics |  |  | 
2 | C[C@H]1[C@H](OC(=O)CCC(=O)O)O[C@@H]2O[C@@]3(C)CC[C@H]4[C@H](C)CC[C@@H]1[C@@]24OO3 [artesunate] | exhibited similar morphological characteristics |  |  | 
3 | C[C@H]1[C@@H](O)O[C@@H]2O[C@@]3(C)CC[C@H]4[C@H](C)CC[C@@H]1[C@@]24OO3 [dihydroartemisinin] | exhibited similar morphological characteristics | up-regulated | gradually increase with the increase of the concentration of dihydroartemisinin | gradually increase with the increase of the concentration of dihydroartemisinin
